Assay [1] has as its system Mycobacterium tuberculosis H37Rv. Briefly: Mycobacterium tuberculosis H37Rv Inhibition Assay (Whole Cell Assay). In kind it is cell-based. Conditions: ATCC 25618 / H37Rv, H37Rv strain (ATCC25618), Middlebrook 7H9, six days at 37° C., resazurin fluorescence after 48 hours. (The colour change of resazurin is a common sign of viable cells or microbes.)
The next assay addresses T1, InhA (Mycobacterium tuberculosis, UniProt P9WGR1).
T1 construct: made in house; host or cells: E. coli
Briefly: Mycobacterium tuberculosis InhA Inhibition Assay (Enzyme Assay). In kind it is biochemical. Conditions: 5 nM InhA, 50 μM DDCoA, 50 μM NADH, PIPES buffer pH 6.8, initial velocities of NADH consumption. The protocol:
InhA is able to reduce 2-trans enoyl-CoA esters with concomitant oxidation of NADH to NAD^+. The assay format is based on the kinetic detection of NADH consumption.
Assay for InhA inhibition is carried out with mycobacterium recombinant protein expressed and purified form E. coli. Standard assay conditions for the determination of kinetic constants and inhibitors activity use 5 nM of InhA, 50 μM of Dodecenoyl-CoA synthesized and purified as described by Quémard et al (DDCoA) and 50 μM of NADH as substrates, and it is carried out in 30 mM PIPES buffer pH 6.8, containing 0.05% of BSA. […] Triclosan is used as positive control in every experiment. One μl of compounds is added to the wells containing 25 μl of the DDCoA+NADH mix, the reaction is started by adding 50 μl of the enzyme solution. Fluorescence from NADH is followed at room temperature during 20 minutes in a fluorescent plate reader (excitation at 340 nm; emission at 480 nm). IC50 values are determined using initial velocities of NADH consumption. • Quémard A, Sacchettini J C, Dessen A, et al. Enzymatic characterization of the target for isoniazid in Mycobacterium tuberculosis. Biochemistry 1995; 34:8235-41. Results of the Mycobacterium tuberculosis InhA Inhibition Assay (Enzyme Assay)

Where two headings read alike, the source gives them in different places.

T1 sequence (P9WGR1 whole entry, looked up): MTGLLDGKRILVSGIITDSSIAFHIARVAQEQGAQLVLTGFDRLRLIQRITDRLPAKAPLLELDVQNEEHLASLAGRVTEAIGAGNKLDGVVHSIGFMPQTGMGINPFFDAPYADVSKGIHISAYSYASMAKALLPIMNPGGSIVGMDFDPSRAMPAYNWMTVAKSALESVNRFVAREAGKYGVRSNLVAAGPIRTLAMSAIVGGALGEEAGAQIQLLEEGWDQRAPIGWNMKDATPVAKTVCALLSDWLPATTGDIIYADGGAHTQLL

In assay [1], `Cc1ccn(C(C)c2nnc(Nc3ccn(Cc4ncccc4F)n3)s2)n1` (racemic) [Example 13, N-{1-[(3-fluoro-2-pyridinyl)methyl]-1H-pyrazol-3-yl}-5-[1-(3-methyl-1H-pyrazol-1-yl)ethyl]-1,3,4-thiadiazol-2-amine] showed an MIC of at most 4 µM. The half-inhibitory concentration (IC50) on InhA (read-out: IC50 value) is at most 130 nM.

Compound `Cc1csc(C(C)(O)c2nnc(Nc3ccn(Cc4csc(C)n4)n3)s2)n1` (racemic) [Example 21, 1-(4-methyl-1,3-thiazol-2-yl)-1-[5-({1-[(2-methyl-1,3-thiazol-4-yl)methyl]-1H-pyrazol-3-yl}amino)-1,3,4-thiadiazol-2-yl]ethanol] had an MIC in assay [1] of at most 1 µM. Further, the IC50 on InhA (read-out: IC50 value) is at most 119 nM.

As to `Cc1csc(C(C)(O)c2nnc(Nc3ccn(Cc4ncccc4F)n3)s2)n1` (racemic) [Example 38, 1-[5-({1-[(3-fluoro-2-pyridinyl)methyl]-1H-pyrazol-3-yl}amino)-1,3,4-thiadiazol-2-yl]-1-(4-methyl-1,3-thiazol-2-yl)ethanol], in assay [1], the minimal inhibitory concentration (MIC) is at most 1 µM. Further, the IC50 on InhA (read-out: IC50 value) is at most 120 nM.

For the compound `Cc1ccn([C@H](C)c2nnc(Nc3ccn(Cc4ncccc4F)n3)s2)n1` (single isomer, unassigned) [Example 39], in assay [1], the minimal inhibitory concentration (MIC) is above 10 µM. Moreover, on InhA (IC50 value), the concentration for half-maximal inhibition (IC50) was in the range of 260 to 1300 nM.

`Cc1ccn([C@@H](C)c2nnc(Nc3ccn(Cc4ncccc4F)n3)s2)n1` (single isomer, unassigned) [Example 40]: in assay [1], the MIC is at most 4 µM. At InhA (IC50 value), the IC50 was at most 130 nM.

The compound `Cc1csc([C@](C)(O)c2nnc(Nc3ccn(Cc4ncccc4F)n3)s2)n1` (single isomer, unassigned) [Example 41] displayed a minimal inhibitory concentration (MIC) in assay [1] of at most 1 µM. This compound also had an IC50 against InhA (IC50 value) of at most 120 nM.

Regarding `Cc1csc([C@@](C)(O)c2nnc(Nc3ccn(Cc4ncccc4F)n3)s2)n1` (single isomer, unassigned) [Example 42], the MIC in assay [1] is above 10 µM. The compound also gave a half-maximal inhibitory concentration (IC50) at InhA (IC50 value) of 240 to 1200 nM.

Turning to `Cc1csc([C@](C)(O)c2nnc(Nc3ccn(Cc4csc(C)n4)n3)s2)n1` (single isomer, unassigned) [Example 43], the 50% inhibitory concentration (IC50) against InhA (IC50 value) was at most 119 nM.

As for `Cc1csc([C@@](C)(O)c2nnc(Nc3ccn(Cc4csc(C)n4)n3)s2)n1` (single isomer, unassigned) [Example 44], in assay [1], the MIC was above 10 µM. Further, the IC50 against InhA (IC50 value) fell in the range of 238 to 1190 nM.

`Cc1cccc(Cn2ccc(Nc3nnc(C(C)n4nc(C)cc4C)s3)n2)n1` (centres unmarked) [Example 1, 5-[1-(3,5-dimethyl-1H-pyrazol-1-yl)ethyl]-N-{1-[(6-methyl-2-pyridinyl)methyl]-1H-pyrazol-3-yl}-1,3,4-thiadiazol-2-amine] displayed an MIC in assay [1] above 10 µM. In addition, the IC50 on InhA (read-out: IC50 value) is at most 127 nM.

In assay [1], `Cc1cc(C)n(C(C)c2nnc(Nc3ccn(Cc4nccc(C)c4F)n3)s2)n1` (centres unmarked) [Example 2, 5-[1-(3,5-dimethyl-1H-pyrazol-1-yl)ethyl]-N-{1-[(3-fluoro-4-methyl-2-pyridinyl)methyl]-1H-pyrazol-3-yl}-1,3,4-thiadiazol-2-amine] returned a minimal inhibitory concentration (MIC) of at most 4 µM. Besides, at InhA (read-out: IC50 value), the IC50 is at most 121 nM.

In the case of `Cc1ccn(C(C)c2nnc(Nc3ccn(Cc4nccc(C)c4F)n3)s2)n1` (centres unmarked) [Example 3, N-{1-[(3-fluoro-4-methyl-2-pyridinyl)methyl]-1H-pyrazol-3-yl}-5-[1-(3-methyl-1H-pyrazol-1-yl)ethyl]-1,3,4-thiadiazol-2-amine], in assay [1], the MIC is above 10 µM. Further, the IC50 at InhA (read-out: IC50 value) was at most 125 nM.

With `Cc1cc(C)n(C(C)c2nnc(Nc3ccn(Cc4cccnc4)n3)s2)n1` (centres unmarked) [Example 4, 5-[1-(3,5-dimethyl-1H-pyrazol-1-yl)ethyl]-N-[1-(3-pyridinylmethyl)-1H-pyrazol-3-yl]-1,3,4-thiadiazol-2-amine], the MIC in assay [1] was above 10 µM. The IC50 at InhA (read-out: IC50 value) is at most 131 nM.

Take `Cc1csc(C(C)(O)c2nnc(Nc3ccn(Cc4ncccc4O)n3)s2)n1` (centres unmarked) [Example 16, 2-{[3-({5-[1-hydroxy-1-(4-methyl-1,3-thiazol-2-yl)ethyl]-1,3,4-thiadiazol-2-yl}amino)-1H-pyrazol-1-yl]methyl}-3-pyridinol]: the MIC in assay [1] is above 10 µM.

In general, MIC refers to the smallest concentration in the dilution series that meets the test's criterion for growth inhibition. A low value points to greater potency. In general, IC50 refers to the midpoint of a concentration-inhibition curve.

The values above are taken from patent publication US9334265B2, “3-amino-pyrazole derivatives useful against tuberculosis” (GLAXO GROUP LIMITED, priority 2010, dated 2016).
